Source: patent US8986652B2, “Method of preparing [123I]iodooctyl fenbufen amide and application thereof” (National Tsing Hua University, priority 2012, dated 2015)
Read-outs that look alike come from different tables or passages of the source.

Legend:
COX-1 [1] = molecular target: T1, COX-1 (Ovis aries, UniProt P05979); assay: Colorimetric COX inhibitor screening assay (competitive inhibition of substrate transfer, CIST), COX-1; assay type: biochemical, ovine
T1 construct: purchased Cayman Chemical Ltd 760111
T1 sequence (P05979 25-600): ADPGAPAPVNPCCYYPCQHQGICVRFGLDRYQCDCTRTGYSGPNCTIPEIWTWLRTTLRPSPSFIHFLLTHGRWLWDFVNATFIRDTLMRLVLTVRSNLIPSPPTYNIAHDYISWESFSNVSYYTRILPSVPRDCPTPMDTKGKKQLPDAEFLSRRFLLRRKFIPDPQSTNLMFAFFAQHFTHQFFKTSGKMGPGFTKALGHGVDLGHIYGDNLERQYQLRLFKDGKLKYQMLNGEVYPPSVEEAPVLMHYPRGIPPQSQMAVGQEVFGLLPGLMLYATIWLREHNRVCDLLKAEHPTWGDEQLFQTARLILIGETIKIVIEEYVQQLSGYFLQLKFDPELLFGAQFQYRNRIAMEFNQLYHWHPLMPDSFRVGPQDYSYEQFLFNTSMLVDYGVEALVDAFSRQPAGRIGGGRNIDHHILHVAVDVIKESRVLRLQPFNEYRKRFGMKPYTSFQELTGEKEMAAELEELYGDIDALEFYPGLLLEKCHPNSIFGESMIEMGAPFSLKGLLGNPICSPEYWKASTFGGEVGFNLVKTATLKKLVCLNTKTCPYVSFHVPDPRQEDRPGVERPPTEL

rat liver tumor lesion = settings: cited from earlier work
[2] = tested on: thioacetamide-induced cholangiocarcinoma (CCA) rat; assay: SPECT/CT imaging in normal rat and thioacetamide-induced cholangiocarcinoma (CCA) rat; assay type: in vivo; settings: tail vein
Procedure: All in vivo experiments were performed in compliance with the Taiwan National Health and Medical Research Council (NHMRC) Code of Practice for the care and use of animals for scientific purposes. Male-, Sprague-Dawley (SD) rats ([…]) were obtained from the Animal Research Center (Chang-Gung Memorial Hospital, Taiwan). Rats were housed under constant environmental conditions and were allowed free access to food and water throughout the experimental period. In vivo studies were performed in a thioacetamide-induced cholangiocarcinoma (CCA) rat (37th week post administration) along with a normal rat as a control.
The rats were anaesthetized via inhalant isoflurane (Forthane, Abott) in 200 mL/min oxygen during the imaging study. […]
The compound of formula 1 (0.76 mCi/1 mL) was administered by the CCA rat via tail vein injection to obtain a summation of one-hour Single Photon Emission Computer Tomography (SPECT) imaging data (FIG. 4(A)). The normal rat was injected with the residual radioactivity of the compound of formula 1 (1.39 mCi/1 mL) (FIG. 4 (B)). All in vivo experiments were performed in compliance with the NHMRC Taiwan Code of Practice for the care and use of animals for scientific purposes, and the raw data from the image further analyzed by Preclinical Multi-Modality Data Analysis software (PMOD Technologies Ltd, Zurich, Switzerland).

COX-2 [3] = molecular target: T2, COX-2 (Ovis aries, UniProt P79208); assay: Radioligand binding assay by gel filtration HPLC, COX-2; parameters: species or system ovine; settings: for Binding yield (bound conjugate, accumulated radioactivity fraction) with COX-2: 25° C., 15 min incubation, peak at 5 min / (5 min + 13.6 min)
T2 construct: purchased Cayman Chemical Ltd 760111
T2 sequence (P79208 17-603): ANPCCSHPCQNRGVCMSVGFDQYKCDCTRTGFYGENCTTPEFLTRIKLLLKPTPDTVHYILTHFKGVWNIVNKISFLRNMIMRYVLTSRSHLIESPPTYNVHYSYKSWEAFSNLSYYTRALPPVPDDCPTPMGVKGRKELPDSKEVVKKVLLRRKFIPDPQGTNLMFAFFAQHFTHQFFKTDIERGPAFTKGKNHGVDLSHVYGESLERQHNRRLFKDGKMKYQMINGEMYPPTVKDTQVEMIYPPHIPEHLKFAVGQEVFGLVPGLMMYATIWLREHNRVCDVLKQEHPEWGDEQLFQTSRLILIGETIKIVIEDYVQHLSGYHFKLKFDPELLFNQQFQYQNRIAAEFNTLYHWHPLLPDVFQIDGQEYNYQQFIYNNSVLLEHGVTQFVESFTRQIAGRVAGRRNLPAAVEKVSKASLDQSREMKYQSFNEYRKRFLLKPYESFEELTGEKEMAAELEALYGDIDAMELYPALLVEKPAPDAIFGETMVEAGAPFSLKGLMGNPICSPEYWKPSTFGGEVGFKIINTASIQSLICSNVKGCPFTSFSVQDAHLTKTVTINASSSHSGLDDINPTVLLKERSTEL
Procedure: (§1) The compound of formula 1 was purified by a set of HPLC consisting of the components of a Waters 510 pump, a linear UVIS detector (254 nm) in series with a Berthhold γ-flow detector, on a ZORBAX SIL column (250 mm×9.4 mm, 5 μm) at 3 mL/min with MeOH/CHCl3=1/99 as the mobile phase. Quality analysis of The compound of formula 1 was performed on the same HPLC setup as described above. The settings for radioactive ligand binding assay included a gel filtration column of TSKgel G3000PWx1 7.5×300 (mm) with a particle size of 10 μm which was purchased from Tosoh Bioscience LLC. The corresponding eluting conditions including PBS buffer and flow rate of 1 mL/min were employed throughout the experiment. The identity of The compound of formula 1 was confirmed with the compound of formula 2 on HPLC chromatogram after coinjection. The peak area of the UV absorbance at 254 nm that should correspond to the compound of formula 2 was calculated by interpolating to the standard curve relating mass to UV absorbance. Only a specific activity below 36 GBq/μmol can be measured accurately. Radioactive measurements were performed by a Capintec R15C dose calibrator.
(§2) The binding experiment was carried out in an eppendorf (0.2 mL) and stood for 10 min for equilibrium. An aliquot (10 μL) was drawn from the commercial stock solution (200 μL). Additional 30 μL of tris buffer (0.1 M, pH=8.0) was added. The solution (40 μL) of COX-1 or COX-2 each was added into a tris buffer (50 μL) together with the addition of a solution of the radiotracer the compound of formula 1 in EtOH with concentration ranging from 66 μCi/10 μL to 70 μCi/10 μL. The whole mixture (100 μL) was incubated at 25° C. for 15 min followed by submission to purification using HPLC. PBS buffer (0.1 M, pH=7.3) was employed as the eluent and the flow rate was set to be 1 mL/min.
(§3) The assay was based on that the retention time of the bound complex between radiolabeled ligand and enzyme was different from that of the unbound ligand in HPLC. […]

COX-1 [4] = molecular target: T1, COX-1; assay: Radioligand binding assay by gel filtration HPLC, COX-1; parameters: species or system ovine; settings: for Binding yield (bound conjugate, accumulated radioactivity fraction) with COX-1: 25° C., 15 min incubation, peak at 5 min / (5 min + 13.6 min)
Procedure: as §1, §2, §3

COX-2 [5] = molecular target: T2, COX-2; assay: Colorimetric COX inhibitor screening assay (competitive inhibition of substrate transfer, CIST), COX-2; assay type: biochemical; settings: colorimetric COX (ovine) kit; read-out: IC50 value COX-2, this assay
COX-1 [6] = molecular target: COX-1 (Homo sapiens, UniProt P23219); settings: read-out: IC50 value COX-1, lit. data; literature data; cited from earlier work
Chain of COX-1 (Homo sapiens, UniProt P23219) (P23219 24-599): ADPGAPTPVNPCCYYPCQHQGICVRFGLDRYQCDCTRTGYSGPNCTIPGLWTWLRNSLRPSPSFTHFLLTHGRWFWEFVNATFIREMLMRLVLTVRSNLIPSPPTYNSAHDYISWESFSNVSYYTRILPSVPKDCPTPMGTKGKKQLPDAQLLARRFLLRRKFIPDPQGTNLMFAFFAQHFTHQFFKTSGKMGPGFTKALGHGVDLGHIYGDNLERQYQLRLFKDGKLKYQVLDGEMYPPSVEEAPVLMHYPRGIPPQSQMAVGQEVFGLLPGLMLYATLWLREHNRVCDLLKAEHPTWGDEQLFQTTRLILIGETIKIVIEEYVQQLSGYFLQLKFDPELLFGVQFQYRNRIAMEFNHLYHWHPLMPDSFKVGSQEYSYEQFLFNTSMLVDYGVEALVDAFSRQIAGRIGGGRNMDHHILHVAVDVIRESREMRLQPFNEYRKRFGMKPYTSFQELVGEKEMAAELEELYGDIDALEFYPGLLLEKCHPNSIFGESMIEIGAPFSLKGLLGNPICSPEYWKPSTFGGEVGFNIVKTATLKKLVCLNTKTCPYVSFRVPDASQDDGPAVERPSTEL

COX-2 [7] = molecular target: T3, COX-2 (Homo sapiens, UniProt P35354); settings: read-out: IC50 value COX-2, lit. data; literature data; cited from earlier work
T3 sequence (P35354 18-604): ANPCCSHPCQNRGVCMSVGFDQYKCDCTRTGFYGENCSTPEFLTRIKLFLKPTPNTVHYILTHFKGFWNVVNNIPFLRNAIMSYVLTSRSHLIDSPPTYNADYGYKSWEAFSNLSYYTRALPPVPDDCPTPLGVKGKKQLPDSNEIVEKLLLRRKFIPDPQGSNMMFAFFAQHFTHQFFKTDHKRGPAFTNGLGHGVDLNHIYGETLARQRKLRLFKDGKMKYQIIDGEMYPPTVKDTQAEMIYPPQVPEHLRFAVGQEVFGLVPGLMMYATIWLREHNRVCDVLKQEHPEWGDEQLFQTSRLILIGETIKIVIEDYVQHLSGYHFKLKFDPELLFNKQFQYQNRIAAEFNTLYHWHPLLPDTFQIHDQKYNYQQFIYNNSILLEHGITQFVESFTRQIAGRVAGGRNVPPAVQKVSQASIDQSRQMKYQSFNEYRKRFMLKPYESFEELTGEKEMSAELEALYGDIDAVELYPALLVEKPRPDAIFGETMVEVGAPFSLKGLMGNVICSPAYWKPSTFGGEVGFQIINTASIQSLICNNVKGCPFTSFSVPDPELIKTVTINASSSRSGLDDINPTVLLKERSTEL

NO = settings: antioxidant (e.g. NO) assay; cited from earlier work
[8] = colorimetric COX (ovine) kit, read-out: IC50 value COX-1, this assay

Work on `Oc1ccc(C=Cc2cc(O)cc(O)c2)cc1` [Resveratrol] yielded an IC50 (COX-1 [1]) of 3.9 µM.
In the case of `C=C(CC)C(=O)c1ccc(OCC(=O)NCCCC[18F])c(Cl)c1Cl` [[^18F]FBuEA, [^18F]-N-(4-fluorobutyl)ethacrynic amide], the “Image of tumor lesion” value (rat liver tumor lesion) is listed as “only shows the image of cold spot”.
With `CCCCCCCCNC(=O)CCC(=O)c1ccc(-c2ccc([123I])cc2)cc1` [compound of formula 1, 4-(4′-[^123I]iodobiphenyl-4-yl)-N-octyl-4-oxobutanamide] the “In-vivo distribution of radioactivity, SPECT” value ([2]; CCA tumor rat, 0.76 mCi/1 mL) was “a heterogeneous radioactivity accumulation was addressed in the liver”, the “In-vivo distribution of radioactivity, SPECT” value ([2]; normal rat, 1.39 mCi/1 mL, 30 mins post administration) was “a homogeneous pattern, which was localized mainly in the liver and partly in the heart” and the “Binding yield (bound conjugate, accumulated radioactivity fraction) with COX-2” value (COX-2 [3]) was 79%. The “Intact (unbound) form remained, COX-2 binding experiment” value (COX-2 [3]; peak at 13.6 min) was 21%, the “Binding yield (bound conjugate, accumulated radioactivity fraction) with COX-1” value (COX-1 [4]) was 56% and the “Intact (unbound) form remained, COX-1 binding experiment” value (COX-1 [4]; peak at 13.6 min) was 44%.
For `CCCCCCCCNC(=O)CCC(=O)c1ccc(-c2ccc(I)cc2)cc1` [compound of formula 2, 4-(4′-iodobiphenyl-4-yl)-n-octyl-4-oxobutanamide], the IC50 (COX-1 [1]; [8]) was over 10 µM, the melting point was 181 to 182 °C and the “Binding yield (bound conjugate, accumulated radioactivity fraction) with COX-2” value (COX-2 [3]) was 76%. The “Binding yield (bound conjugate, accumulated radioactivity fraction) with COX-1” value (COX-1 [4]) was 56% and the IC50 (COX-2 [5]) was over 10 µM.
For `O=C(O)CCC(=O)c1ccc(-c2ccccc2)cc1` [fenbufen], the IC50 (COX-1 [1]; [8]) is listed as over 10 µM, the IC50 (COX-1 [6]) is listed as 3.9 µM and the IC50 (COX-2 [7]) is listed as 8.1 µM. The IC50 (COX-2 [5]) was over 10 µM.
In the case of `O=c1ccn([C@@H]2O[C@H](CO)[C@@H](O)[C@H]2O)c(=O)[nH]1` [uridine], the IC50 (COX-1 [1]; [8]) is reported as over 10 µM and the IC50 (COX-2 [5]) is reported as over 10 µM.
In the case of Octyl fenbufen amide [OFA], the Anti inflammatory effect (NO) is given as “marginal”.
